In assay [1] the test system is Trichophyton mentagrophytes SM-110. In words: Antifungal activity evaluation test: minimum inhibitory concentration (MIC), broth dilution by reference to CLSI M38-A2. Particulars: SM110, read-out: MIC (T. menta.). It counts as cell-based. As to the method:
(§1) The minimum inhibitory concentration (MIC) for Trichophyton mentagrophytes and Trichophyton rubrum was measured by the following procedure by reference to Clinical and Laboratory standards Institute (CLSI) guidelines M38-A2. Reference document for the measurement method: National Committee for a Clinical Laboratory Standards. Reference method for broth dilution antifungal susceptibility testing of filamentous fungi. Approved standard Second edition M38-A2. Wayne, Pa.: National Committee for a Clinical Laboratory Standards, 2008. • Test compound solution: A test compound was dissolved in dimethyl sulfoxide (DMSO) at a concentration of 2.5 mg/mL to give a stock solution. The stock solution was appropriately diluted with DMSO to prepare a 2-fold dilution series. As control compounds, terbinafine and amorolfine were used. • Test strains: Trichophyton mentagrophytes SM-110 and Trichophyton rubrum KD-1130 were used. • Preparation of fungal culture to be inoculated: The above-mentioned test strain was suspended in 0.05% Tween 80-containing saline, and the fungi of the genus Trichophyton were prepared to a fungal concentration of 1×10^6 cells/mL by using a hemocytometer. Then, using MOPS-buffered RPMI 1640 medium (pH 7.0) as a test medium, a fungal culture of the fungi of the genus Trichophyton was diluted 250-fold (4×10^3 cells/mL) to give a fungal culture for inoculation. • MIC measurement of genus Trichophyton fungi: MOPS-buffered RPMI 1640 medium (pH 7.0) was dispensed by 100 μL to given wells of a 96 well U-bottom microplate. Then, the test compound solution (2 μL) was added, the mixture was sufficiently stirred by a plate mixer. The fungal culture (100 μL) was inoculated and the mixture was cultured at 35° C. for 4 days (final fungal concentration: 2×10^3 cells/mL). After the culture, the minimum drug concentration of a well in which a growth inhibitory action of not less than 80% was visually observed as compared to a growth control was taken as a minimum inhibitory concentration (MIC: μg/mL).
(§2) The abbreviations in the Tables mean the following fungi and compounds. • T. menta.: Trichophyton mentagrophytes • T. rubrum: Trichophyton rubrum • TBF: terbinafine • AMF: amorolfine

Assay [2] relates to Trichophyton rubrum KD-1130. The description is as above. It counts as cell-based. The following applies: KD1130, read-out: MIC (T. rubrum). As to the method:
as §1, §2

38 compounds from patent US10647675B2 (priority 2015, dated 2020) can be followed below.

Structures are written as SMILES. Converted amounts (≈) assume the structure as drawn.

As usually defined, the MIC is the lowest concentration that inhibits growth of the organism. Take `COc1ccccc1-c1cccnc1Oc1cnc(OCc2ccccc2)nc1` [I-380, 2-(benzyloxy)-5-{[3-(2-methoxyphenyl)pyridin-2-yl]oxy}pyrimidine]: the minimal inhibitory concentration (MIC) in assay [1] and in assay [2] was no more than 0.1 µg/mL each time.

With `COc1c(-c2cccnc2Oc2ccc(C(F)(F)F)cc2)cnn1C` [I-223, 3-(5-methoxy-1-methyl-1H-pyrazol-4-yl)-2-[4-(trifluoromethyl)phenoxy]pyridine], the minimal inhibitory concentration (MIC) in assay [1] and in assay [2] was 0.2 to 0.78 µg/mL (≈ 0.573 to 2.23 µM) in each case.

For the compound `CC(F)(F)c1ccc(Oc2ncccc2-c2cccc(F)c2C#N)cn1` [I-87, 2-(2-{[6-(1,1-difluoroethyl)pyridin-3-yl]oxy}pyridin-3-yl)-6-fluorobenzonitrile], the MIC in assay [1] and in assay [2] was 0.2 to 0.78 µg/mL (≈ 0.563 to 2.2 µM) in each case.

Turning to `Cc1nn(C)c(C)c1-c1cccnc1Oc1ccc(C(F)(F)F)nc1` [I-346, 2-{[6-(trifluoromethyl)pyridin-3-yl]oxy}-3-(1,3,5-trimethyl-1H-pyrazol-4-yl)pyridine], the MIC in assay [1] and in assay [2] was 1.56 to 6.25 µg/mL (≈ 4.48 to 17.9 µM) in each case.

As for `COc1ccccc1-c1cccnc1Oc1ccc(C(F)F)c(C)c1` [I-455], the minimal inhibitory concentration (MIC) in assay [1] and in assay [2] was no more than 0.1 µg/mL each time.

In the case of `CCOC(=O)c1ccc(Oc2ncccc2-c2cnccc2Cl)cc1` [I-414], the minimum inhibitory concentration (MIC) in assay [1] and in assay [2] was no more than 0.1 µg/mL throughout.

For `COc1ncccc1-c1cccnc1Oc1ccc(C(C)(F)F)nc1` [I-88, 2-{[6-(1,1-difluoroethyl)pyridin-3-yl]oxy}-2′-methoxy-3,3′-bipyridine], the minimum inhibitory concentration (MIC) in assay [1] and in assay [2] was no more than 0.1 µg/mL throughout.

As for `COc1cccc(F)c1-c1cccnc1Oc1ccc(C(F)(F)F)nc1` [I-10, 3-(2-fluoro-6-methoxyphenyl)-2-{[6-(trifluoromethyl)pyridin-3-yl]oxy}pyridine], the minimum inhibitory concentration (MIC) in assay [1] and in assay [2] was no more than 0.1 µg/mL each time.

For the compound `COc1ncc(Cl)cc1-c1cccnc1Oc1ccc(C(F)(F)F)nc1` [I-31, 5-chloro-2-methoxy-2′-{[6-(trifluoromethyl)pyridin-3-yl]oxy}-3,3′-bipyridine], the minimal inhibitory concentration (MIC) in assay [1] and in assay [2] was no more than 0.1 µg/mL each time.

Consider `COc1ccncc1-c1cccnc1Oc1ccc(S(F)(F)(F)(F)F)cc1` [I-240, 4′-methoxy-2-[4-(pentafluorosulfanyl)phenoxy]-3,3′-bipyridine], for which the MIC in assay [1] and in assay [2] was no more than 0.1 µg/mL throughout.

As to `FC(F)(F)c1ccc(Oc2ncccc2-c2cccc3c2OCCC3)cn1` [I-38, 3-(chroman-8-yl)-2-{[6-(trifluoromethyl)pyridin-3-yl]oxy}pyridine], the minimum inhibitory concentration (MIC) in assay [1] and in assay [2] was no more than 0.1 µg/mL each time.

Turning to `FC(F)(F)c1ccc(Oc2ncccc2-c2ccccc2Cl)cn1` [I-4, 3-(2-chlorophenyl)-2-{[6-(trifluoromethyl)pyridin-3-yl]oxy}pyridine], the minimal inhibitory concentration (MIC) in assay [1] and in assay [2] was no more than 0.1 µg/mL each time.

Regarding `CC(F)(F)c1ccc(Oc2ncccc2-c2cccc3ccnn23)cn1` [I-115, 7-(2-{[6-(1,1-difluoroethyl)pyridin-3-yl]oxy}pyridin-3-yl)pyrazolo[1,5-a]pyridine], the minimum inhibitory concentration (MIC) in assay [1] and in assay [2] was no more than 0.1 µg/mL in each case.

`COc1ccccc1-c1cccnc1Oc1cnc(C(F)F)c(C)c1` [I-120]: the minimal inhibitory concentration (MIC) in assay [1] and in assay [2] was no more than 0.1 µg/mL throughout.

As to `COc1ncccc1-c1cccnc1Oc1ccc(CCn2cc(C)cn2)cc1` [I-401, 2-methoxy-2′-{4-[2-(4-methyl-1H-pyrazol-1-yl)ethyl]phenoxy}-3,3′-bipyridine], the minimum inhibitory concentration (MIC) in assay [1] and in assay [2] was no more than 0.1 µg/mL throughout.

Turning to `Cc1ccncc1-c1cccnc1Oc1ccc(C(F)(F)CF)cc1` [I-306], the minimal inhibitory concentration (MIC) in assay [1] and in assay [2] was no more than 0.1 µg/mL each time.

As to `COc1cccc(Cl)c1-c1cccnc1Cc1ccc(C(F)(F)F)nc1` [I-441], the MIC in assay [1] and in assay [2] was no more than 0.1 µg/mL in each case.

Consider `Cc1nn(C)c(Cl)c1-c1cccnc1Oc1ccc(C(F)(F)F)cc1` [I-220, 3-(5-chloro-1,3-dimethyl-1H-pyrazol-4-yl)-2-[4-(trifluoromethyl)phenoxy]pyridine], for which the MIC in assay [1] and in assay [2] was no more than 0.1 µg/mL throughout.

In the case of `FC(F)(F)Oc1ccccc1-c1cccnc1Oc1ccc(C(F)(F)F)nc1` [I-21, 3-(2-trifluoromethoxyphenyl)-2-{[6-(trifluoromethyl)pyridin-3-yl]oxy}pyridine], the MIC in assay [1] and in assay [2] was 0.2 to 0.78 µg/mL (≈ 0.5 to 1.95 µM) in each case.

On to `FC(F)(F)c1ccc(Oc2ncccc2-c2ccccc2OCC2CC2)cn1` [I-57, 3-[2-(cyclopropylmethoxy)phenyl]-2-{[6-(trifluoromethyl)pyridin-3-yl]oxy}pryidine], for which the MIC in assay [1] and in assay [2] was 0.2 to 0.78 µg/mL (≈ 0.518 to 2.02 µM) throughout.

Take `COc1ccncc1-c1cccnc1Oc1ccc(C(F)(F)F)nc1` [I-28, 4′-methoxy-2-{[6-(trifluoromethyl)pyridin-3-yl]oxy}-3,3′-bipyridine]: the minimum inhibitory concentration (MIC) in assay [1] and in assay [2] was 0.2 to 0.78 µg/mL (≈ 0.576 to 2.25 µM) throughout.

Take `CCc1ccc(Oc2ncccc2-c2ccccc2OC)cn1` [I-124, 2-[(6-ethylpyridin-3-yl)oxy]-3-(2-methoxyphenyl)pyridine]: the MIC in assay [1] and in assay [2] was 0.2 to 0.78 µg/mL (≈ 0.653 to 2.55 µM) in each case.

For the compound `COc1ncccc1-c1cccnc1Oc1ccc2c(c1)CCC2` [I-270, 2-[(2,3-dihydro-1H-inden-5-yl)oxy]-2′-methoxy-3,3′-bipyridine], the MIC in assay [1] and in assay [2] was no more than 0.1 µg/mL each time.

As for `Cc1ccncc1-c1cccnc1Oc1ccc(-c2ncccn2)cc1` [I-429], the minimum inhibitory concentration (MIC) in assay [1] and in assay [2] was no more than 0.1 µg/mL each time.

On to `COc1ccccc1-c1cccnc1Oc1ccc2c(c1)CCCC2` [I-268, 3-(2-methoxyphenyl)-2-[(5,6,7,8-tetrahydronaphthalen-2-yl)oxy]pyridine], for which the minimum inhibitory concentration (MIC) in assay [1] and in assay [2] was no more than 0.1 µg/mL each time.

On to `CCCN(C)c1ncc(Oc2ncccc2-c2cccnc2OC)cn1` [I-183], for which the MIC in assay [1] and in assay [2] was no more than 0.1 µg/mL throughout.

`COc1ccncc1-c1cccnc1Oc1ccc(C)c(C)c1` [I-262, 2-(3,4-dimethylphenoxy)-4′-methoxy-3,3′-bipyridine]: the MIC in assay [1] and in assay [2] was 0.2 to 0.78 µg/mL (≈ 0.653 to 2.55 µM) in each case.

Regarding `COc1ncccc1-c1cccnc1Oc1ccc(OCc2ccccc2)cc1` [I-277, 2-[4-(benzyloxy)phenoxy]-2′-methoxy-3,3′-bipyridine], the minimal inhibitory concentration (MIC) in assay [1] and in assay [2] was no more than 0.1 µg/mL each time.

On to `Cc1cnc(-c2ccc(Oc3ncccc3-c3cnccc3C)cc2)s1` [I-428], for which the minimum inhibitory concentration (MIC) in assay [1] and in assay [2] was no more than 0.1 µg/mL throughout.

Regarding `COc1ccccc1-c1cncnc1Oc1ccc(C(F)(F)F)cc1` [I-321, 5-(2-methoxyphenyl)-4-[4-(trifluoromethyl)phenoxy]pyrimidine], the minimal inhibitory concentration (MIC) in assay [1] and in assay [2] was no more than 0.1 µg/mL in each case.

In the case of `CCc1ccc(Oc2ncccc2-c2cc3nccn3cc2C)cc1` [I-293, 7-[2-(4-ethylphenoxy)pyridin-3-yl]-6-methylimidazo[1,2-a]pyridine], the MIC in assay [1] and in assay [2] was 1.56 to 6.25 µg/mL (≈ 4.74 to 19 µM) throughout.

In the case of `COc1ncccc1-c1cccnc1Oc1ccc(OCc2ccccc2)nc1` [I-176, 2-{[6-(benzyloxy)pyridin-3-yl]oxy}-2′-methoxy-3,3′-bipyridine], the minimal inhibitory concentration (MIC) in assay [1] and in assay [2] was no more than 0.1 µg/mL in each case.

For `COc1ccccc1-c1cccnc1Oc1cnc2c(c1)CCCCC2` [I-136, 3-{[3-(2-methoxyphenyl)pyridin-2-yl]oxy}-6,7,8,9-tetrahydro-5H-cyclohepta[b]pyridine], the minimum inhibitory concentration (MIC) in assay [1] and in assay [2] was no more than 0.1 µg/mL each time.

Consider `COc1ccccc1-c1cccnc1Oc1ccc(COc2ccccc2)nc1` [I-175, 3-(2-methoxyphenyl)-2-{[6-(phenoxymethyl)pyridin-3-yl]oxy}pyridine], for which the MIC in assay [1] and in assay [2] was 0.2 to 0.78 µg/mL (≈ 0.52 to 2.03 µM) throughout.

As for `COc1ccccc1-c1cncnc1Oc1ccc(Cl)cc1` [I-319, 4-(4-chlorophenoxy)-5-(2-methoxyphenyl)pyrimidine], the MIC in assay [1] and in assay [2] was no more than 0.1 µg/mL each time.

On to `CCCN(C)c1ncc(Oc2ncccc2-c2ccccc2OC)cn1` [I-182, 5-{[3-(2-methoxyphenyl)pyridin-2-yl]oxy}-N-methyl-N-propylpyrimidin-2-amine], for which the minimal inhibitory concentration (MIC) in assay [1] and in assay [2] was no more than 0.1 µg/mL each time.

`Cc1c(F)cncc1-c1cccnc1Oc1ccc(C(C)(F)F)nc1` [I-99, 2-{[6-(1,1-difluoroethyl)pyridin-3-yl]oxy}-5′-fluoro-4′-methyl-3,3′-bipyridine]: the MIC in assay [1] and in assay [2] was 0.2 to 0.78 µg/mL (≈ 0.579 to 2.26 µM) each time.

As for `Cc1nsc(C)c1-c1cccnc1Oc1ccc(C(C)(F)F)nc1` [I-101, 4-(2-{[6-(1,1-difluoroethyl)pyridin-3-yl]oxy}pyridin-3-yl)-3,5′-dimethylisothiazole], the minimum inhibitory concentration (MIC) in assay [1] and in assay [2] was 0.2 to 0.78 µg/mL (≈ 0.576 to 2.25 µM) each time.
